The target in this test is Bcl-xL/BAK (Homo sapiens, UniProt Q07817+Q16611). The test is described as follows: Inhibition of Bcl-xL (1 to 206, delta 45 to 84)-BAK (unknown origin) protein interaction by fluorescence polarization assay. For orientation: Fluorescence polarisation rises when a labelled molecule tumbles more slowly, as on binding a larger partner.

Counter-ions that a name gives are not always drawn.

Chain of Bcl-xL/BAK (Q07817 whole entry): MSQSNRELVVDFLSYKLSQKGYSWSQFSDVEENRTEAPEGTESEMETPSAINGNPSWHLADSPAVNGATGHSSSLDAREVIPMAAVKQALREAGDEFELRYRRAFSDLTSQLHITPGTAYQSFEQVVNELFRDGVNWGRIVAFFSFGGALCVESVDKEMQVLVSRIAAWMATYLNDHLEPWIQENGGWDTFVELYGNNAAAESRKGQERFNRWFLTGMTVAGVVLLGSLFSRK
Chain of Bcl-xL/BAK (Q16611 whole entry): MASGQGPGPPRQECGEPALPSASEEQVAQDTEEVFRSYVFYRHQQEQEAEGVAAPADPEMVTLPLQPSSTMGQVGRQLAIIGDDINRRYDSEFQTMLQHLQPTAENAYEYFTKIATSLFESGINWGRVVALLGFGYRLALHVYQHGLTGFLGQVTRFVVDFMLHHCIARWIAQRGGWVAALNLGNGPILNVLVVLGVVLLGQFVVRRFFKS

In turn, `CCCC[C@H](CC)CNC(=N)NC(=N)NCCCCCCNC(=N)NC(=N)NC[C@@H](CC)CCCC` showed an IC50 of 25.7 µM. In other words, the double-digit micromolar range. The molecule `CCCC[C@@H](CC)CNC(=N)NC(=N)NCCCCCCNC(=N)NC(=N)NC[C@H](CC)CCCC` registered an IC50 of 21.3 µM. The result for `CCCCC(CC)CNC(=N)NC(=N)NCCCCCCNC(=N)NC(=N)NCC(CC)CCCC` (mixture of isomers) [ALEXIDINE DIHYDROCHLORIDE] reads 18.3 µM.

The IC50 is the concentration at which inhibition is half-maximal.

The record behind these values is ChEMBL document CHEMBL3091420, “Synthesis and biochemical evaluation of highly enantiomerically pure (R,R)- and (S,S)-alexidine” (Bioorg Med Chem, 2013).
